Test results published in PubChem BioAssay (NCI).
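Step 1: Grow cells in 96-well plates. Step 2: Expose to compound for 48 hours at 5 concentrations. Step 3: Interpolate endpoints linearly; if unreached, use highest concentration. Here, GI50 denotes the concentration required for 50% inhibition of growth. TGI: concentration producing complete growth inhibition.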

What was measured:
Experiment in all cases: DTP human tumour cell line panel, 48 h; in the data active = GI50 below about 0.43 µM; inactive = the rest
[1] = tested on: HCC-2998 colon
[2] = tested on: HOP-92 NSCLC
[3] = tested on: T-47D breast
[4] = tested on: NCI-H226 lung
[5] = tested on: HS 578T breast
[6] = tested on: COLO 205 colon
[7] = tested on: SK-MEL-2 melanoma
[8] = tested on: SK-OV-3 ovarian
[9] = tested on: MDA-MB-435
[10] = tested on: SNB-19 CNS

CCOC(=O)c1ccc2c(c1)[n+](=O)c(C(C)=O)c(C(F)(F)F)n2[O-]
3.06 µM: TGI [3]
2.45 µM: TGI [1]
3.96 µM: TGI [5]
3.34 µM: TGI [8]
5.22 µM: TGI [7]
3.93 µM: TGI [4]
2.86 µM: TGI [2]
3 µM: TGI [6]
inactive: GI50 [1] 1.05 µM | GI50 [2] 1.4 µM | GI50 [3] 1.29 µM | GI50 [4] 1.8 µM | GI50 [5] 1.4 µM | GI50 [6] 1.54 µM | GI50 [7] 1.89 µM | GI50 [8] 1.64 µM | GI50 [9] 1.61 µM | GI50 [10] 1.73 µM
3.21 µM: TGI [9]
4.18 µM: TGI [10]

O=C(CC(=O)c1cccc(Cl)c1)c1cccc(Cl)c1
> 100 µM: TGI [1] | TGI [2] | TGI [3] | TGI [4] | TGI [5] | TGI [6] | TGI [7] | TGI [8] | TGI [9] | TGI [10]
inactive: GI50 [1] 5.31 µM | GI50 [2] 1.95 µM | GI50 [3] 2.53 µM | GI50 [4] 2.88 µM | GI50 [5] 3.88 µM | GI50 [6] 3.97 µM | GI50 [7] 4.75 µM | GI50 [8] 3.85 µM | GI50 [9] 3.18 µM | GI50 [10] 6.68 µM

Nc1nc(N)c2cc(Sc3cccc(C(F)(F)F)c3)ccc2n1
9.54 µM: TGI [2]
5.25 µM: TGI [7]
2.83 µM: TGI [1]
10.2 µM: TGI [5]
5.81 µM: TGI [9]
3.02 µM: TGI [6]
18.4 µM: TGI [10]
8.15 µM: TGI [4]
inactive: GI50 [3] 1.71 µM | GI50 [4] 2.34 µM
21 µM: TGI [8]
3.6 µM: TGI [3]

COc1cc(NCCN=C(N)NC(N)=NC(C)C)c2ncccc2c1
50.9 µM: TGI [1]
> 75.1 µM: TGI [5]
5.12 µM: TGI [3]
> 100 µM: TGI [4] | TGI [8] | TGI [10]
7.95 µM: TGI [6]
31.6 µM: TGI [2]
41.9 µM: TGI [9]
7.36 µM: TGI [7]
inactive: GI50 [1] 6.61 µM | GI50 [2] 3.59 µM | GI50 [3] 1.44 µM | GI50 [4] 39.7 µM | GI50 [5] 13 µM | GI50 [6] 1.7 µM | GI50 [7] 1.99 µM | GI50 [8] 48.8 µM | GI50 [9] 18.6 µM | GI50 [10] 9.18 µM

CNS(=O)(=O)OCC1OC(n2cnc3c(N)ncnc32)C(O)C1O (configuration not stated)
inactive: GI50 [1] > 100 µM | GI50 [2] > 100 µM | GI50 [3] > 100 µM | GI50 [4] > 100 µM | GI50 [5] > 100 µM | GI50 [6] > 100 µM | GI50 [7] > 100 µM | GI50 [8] > 100 µM | GI50 [9] > 100 µM | GI50 [10] > 100 µM
> 100 µM: TGI [1] | TGI [2] | TGI [3] | TGI [4] | TGI [5] | TGI [6] | TGI [7] | TGI [8] | TGI [9] | TGI [10]

Cc1cn(-c2ccc(S(C)(=O)=O)cc2)c(-c2ccc(Cl)cc2)n1
inactive: GI50 [1] > 100 µM | GI50 [2] > 100 µM | GI50 [3] > 100 µM | GI50 [4] > 100 µM | GI50 [5] > 100 µM | GI50 [6] > 100 µM | GI50 [7] > 100 µM | GI50 [8] > 100 µM | GI50 [9] > 100 µM | GI50 [10] > 100 µM
> 100 µM: TGI [1] | TGI [2] | TGI [3] | TGI [4] | TGI [5] | TGI [6] | TGI [7] | TGI [8] | TGI [9] | TGI [10]

Nc1nc(=O)n([C@@H]2CS[C@H](CO)O2)cc1F
inactive: GI50 [1] > 100 µM | GI50 [2] > 100 µM | GI50 [3] > 100 µM | GI50 [4] > 100 µM | GI50 [5] > 100 µM | GI50 [6] > 100 µM | GI50 [7] > 100 µM | GI50 [8] > 100 µM | GI50 [9] > 100 µM | GI50 [10] > 100 µM
> 100 µM: TGI [1] | TGI [2] | TGI [3] | TGI [4] | TGI [5] | TGI [6] | TGI [7] | TGI [8] | TGI [9] | TGI [10]

Cc1ccc(-c2nc(-c3cn(C)c4ncccc34)cs2)cc1
inactive: GI50 [1] 8.96 µM | GI50 [2] 4.73 µM | GI50 [3] 2.53 µM | GI50 [4] 4.35 µM | GI50 [5] 4.71 µM | GI50 [6] 2.82 µM | GI50 [7] 6.77 µM | GI50 [8] 6.86 µM | GI50 [10] 5.27 µM
30.5 µM: TGI [10]
24.7 µM: TGI [4]
27.5 µM: TGI [8]
active: GI50 [9] 0.402 µM
18.6 µM: TGI [3]
22.8 µM: TGI [1]
34 µM: TGI [7]
26.6 µM: TGI [5]
10.5 µM: TGI [6]
23.8 µM: TGI [2]
2.88 µM: TGI [9]

Cc1cccc(C)c1Nc1nc(C)c(C(=O)CC(=O)C(=O)Nc2c(C(C)C)cccc2C(C)C)s1
> 100 µM: TGI [1] | TGI [2] | TGI [3] | TGI [4] | TGI [5] | TGI [6] | TGI [7] | TGI [8] | TGI [9] | TGI [10]

CCOC(=O)c1cnn2c3ccccc3n(S(=O)(=O)c3ccc(OC)cc3)c12
active: GI50 [1] 0.349 µM | GI50 [6] 0.289 µM | GI50 [9] 0.0473 µM
> 100 µM: TGI [3] | TGI [4] | TGI [5] | TGI [7] | TGI [8] | TGI [9] | TGI [10]
30.1 µM: TGI [1]
16 µM: TGI [2]
1.08 µM: TGI [6]
inactive: GI50 [2] 0.67 µM | GI50 [3] 13.8 µM | GI50 [4] 2.6 µM | GI50 [5] 0.459 µM | GI50 [7] 4.03 µM | GI50 [8] 0.786 µM | GI50 [10] 0.712 µM

CCN1C[C@]2(COC)[C@H](O)C[C@H](OC)[C@]34C1[C@H]([C@H](OC)[C@H]23)[C@]1(OC(C)=O)[C@H]2[C@@H](OC(=O)c3ccccc3)[C@](O)(C[C@H]24)[C@@H](OC)[C@@H]1O
> 100 µM: TGI [1] | TGI [2] | TGI [3] | TGI [4] | TGI [5] | TGI [6] | TGI [7] | TGI [8] | TGI [9] | TGI [10]

Cc1cc(Nc2cc(N3CCN(C)CC3)nc(Sc3ccc(NC(=O)C4CC4)cc3)n2)n[nH]1
active: GI50 [6] 0.0456 µM
7.32 µM: TGI [6]
inactive: GI50 [1] 5.66 µM | GI50 [2] 0.989 µM | GI50 [3] > 10 µM | GI50 [4] 0.737 µM | GI50 [5] 3.46 µM | GI50 [7] 5.51 µM | GI50 [8] > 10 µM | GI50 [9] 2.11 µM | GI50 [10] > 10 µM
> 10 µM: TGI [1] | TGI [3] | TGI [4] | TGI [5] | TGI [7] | TGI [8] | TGI [9] | TGI [10]
5.77 µM: TGI [2]

O=C(c1ccccc1)n1c(-c2ccccc2)cs/c1=N\S(=O)(=O)c1ccc(N2N=C3c4ccccc4CC3C2c2cccs2)cc1 (configuration not stated)
inactive: GI50 [1] 14 µM | GI50 [2] > 100 µM | GI50 [3] > 100 µM | GI50 [4] 30.1 µM | GI50 [5] 17 µM | GI50 [6] 98.1 µM | GI50 [7] > 100 µM | GI50 [8] > 100 µM | GI50 [9] 31.1 µM | GI50 [10] 59.3 µM
> 100 µM: TGI [2] | TGI [3] | TGI [5] | TGI [6] | TGI [7] | TGI [8] | TGI [9] | TGI [10]
85.2 µM: TGI [4]
32.6 µM: TGI [1]
